Data set [1] concerns RAW 264.7 cells. Kind of data set: Morphological changes in RAW 264.7 cells (inverted microscope). It counts as cell-based, murine. As to conditions: HEMA alone or with simultaneous NAC 20 mM, overnight. From the text:
Peripheral Blood Mononuclear Cells

For data set [2], the system named is active caspase 3. Kind of data set: Active caspase 3 staining in PBMCs treated with HEMA or CDDP. The class given is cell-based. As to conditions: HEMA 0.0164M.
In data set [3] the test system is Jurkat T cells. Kind of data set: Cell death in Jurkat T cells (PI/FITC-Annexin V). It counts as cell-based. As to conditions: 0.082M-0.0082M HEMA and/or NAC 20 mM simultaneously; overnight. The procedure:
After an overnight incubation the levels of cell death in Jurkat T cells were determined using dual staining with PI/FITC-Annexin V as described previously (FIG. 19B). 10,000 events were analyzed for each sample. Similar results were obtained when apoptosis was assessed by PI staining of ethanol fixed Jurkat T cells. • 2. Decreased Levels of Full Length Caspase 9 and Caspase 3 in HEMA-Treated Keratinocytes

Data set [4] concerns human dental pulp stromal cells. Kind of data set: VEGF by ELISA, human dental pulp stromal cells, NAC versus vitamin E (Table 5). As to conditions: 4 hours. It counts as cell-based. The procedure:
Following the 4 hour incubation, cells were analyzed for apoptosis using FTIC-Annexin V and PI.
Dental pulp stromal cells were then treated as described in the preceding paragraph with supernatants removed and assayed for VEGF levels by ELISA following the 4 hour incubation.
For orientation: ELISA stands for enzyme-linked immunosorbent assay.

The subject of data set [5] is caspases 9 and 3. Kind of data set: Full length caspases 9 and 3 in HEp2 cells (Western blot). It counts as cell-based. As to conditions: 0.0164M HEMA about 18 hours. The procedure: Protein concentrations were determined by a DC protein assay kit (Bio-Rad, Hercules, Calif.). An aliquot of total protein lysate was diluted in an equal volume of about 2% SDS sample buffer, about 6.2 mM Tris (pH about 6.8), about 2.3% SDS, about 5% mercaptoethanol, about 10% glycerol, and about 0.02% bromophenol blue and boiled for about 10 minutes. The cell lysates (40 μg) were then electrophoresed on 12% SDS-PAGE gels and were subjected to Western blot analysis. Levels of β-tubulin and actin were used to normalize the protein expression. Relative concentrations were assessed by densitometric analysis of digitized autographic images. The anti-actin and anti-β-tubulin monoclonal antibodies were purchased from Santa Cruz Biotechnology (Santa Cruz, Calif.) and from Calbiochem (San Francisco, Calif.) respectively. The polyclonal antibodies anti-caspase 3 and anti-caspase 9, were obtained from Cell Signaling (San Diego, Calif.). […] Decreased Processing and Cleavage of Caspase 3 in the Presence of NAC

For data set [6], the system named is GAPDH. Put plainly: GAPDH protein in dental pulp stromal cells (KDalert GAPDH assay kit). It counts as cell-based. As to conditions: HEMA (0.082M) alone or with NAC 20 mM, 4 hours. Here is the method:
After 4 hours of incubation the protein levels of GAPDH were determined using a KDalert GAPDH assay kit (Ambion). This assay is a fluorescent based assay which measures the conversion of NAD+ to NADH catalyzed by GAPDH.

The test system of data set [7] is RAW 264.7 cells. Here is the method:
(§1) RAW 264.7 cells (murine macrophages) were obtained from American Type Culture Collection (ATCC) and were cultured in a 5% CO2 atmosphere in DMEM (purchased from Cellgro (Herndon, Va.)) containing 10% FCS, 1% penicillin-streptomycin, 1% sodium pyruvate, 1% non essential amino acids and 1% glutamine. THP-1 cells (human macrophages) were obtained from ATCC and were cultured under the same conditions, with RMPI 1640 containing 10% FCS, 1% penicillin-streptomycin, 1% sodium pyruvate and 1% non essential amino acids.
(§2) Dose-dependent apoptosis was measured by FITC-Annexin V/Propidium iodide kits (Miami, Fla.). Cells were plated in six-well/twelve well plates. […] Cells were washed twice with PBS and centrifuged at about 2000 rpm for about 5 minutes and resuspended in binding buffer (provided in the kit) along with FITC-Annexin V/Propidium iodide (PI) according to manufacturer's instructions. After incubating on ice (light protected) for about 15 minutes, samples were analyzed by flow cytometry. Flow cytometric analysis was performed using a flow cytometer equipped with a single 488-nm argon laser. Dead cell fragments were gated out by forward and side scatter analysis. […] Forward and side scatter were used to gate out cellular fragments.
(§3) After an overnight incubation, the levels of cell death were determined using PI staining of ethanol fixed cells. Specifically, cells were washed twice with PBS before they were treated with 70% ethanol (250 μl). Ethanol was added dropwise and then the cells were incubated on ice for 30 minutes. The cells were then washed twice with PBS and resuspended in 1 ml PBS to which PI at a final concentration of 1 mg/ml was added. The samples were then analyzed using the flow cytometer.
(§4) In FIGS. 2A and 2B, the numbers in each histogram represent the percentage of Sub Go/G1 fragmented cell populations. Ten thousand events were analyzed for each sample.

For data set [8], the system named is THP-1 cells. Here is the method:
as §1, §2, §3, §4

In data set [9] the test system is odontoblasts. Put plainly: Cell viability of rat odontoblasts. It counts as cell-based. As to conditions: 0.0164M-0.00164M HEMA with NAC 20 mM, about 12-14 hours, versus HEMA alone. The procedure: Differentiation was induced by the addition of about 10 mM of β-glycerophosphate and about 50 μg/ml of ascorbic acid.
Data set [10] has as its system differentiated pulp cells (odontoblasts). Kind of data set: Composite discs on differentiated pulp cells, FITC-Annexin V/PI. To be noted: completely cured composite discs in 0.4 μm inserts; one week. It counts as cell-based. The procedure:
Next, the effects of routinely used composites on the odontoblasts were tested. The composite discs were made according to ADA specifications. These discs were completely cured for a total time of about 90 seconds. The discs were then placed into culture dish inserts (Millipore, Calif.). […] The insert along with the composite disc were placed into the well containing the differentiated pulp cells. After one week of incubation at about 37° C. the cells were removed and the numbers of apoptotic cells were analyzed using FITC-Annexin V/PI as described previously.

The test system of data set [11] is teeth and surrounding tissue. Kind of data set: Rat tooth bleaching with or without NAC: photographs of teeth and tissue. The class given is in vivo. Here is the method:
Rats were divided into the following groups: A: control, unbleached; B: bleached with no NAC; and C: Bleached with NAC. The bleaching agent used in the following studies was Oral B Rembrandt whitening system (containing 33% hydrogen peroxide and carbamide) often used in dental offices (chair side). NAC was initially painted on teeth at a 20 mM concentration for 5 minutes. Next a bleaching agent was applied for 5 hours, after which the teeth were extracted, and pulp was obtained from each group and treated with trypsin/EDTA (0.25%) and collagenase (0.02%). […] Also note that bleaching in the presence of NAC (F) was as effective as bleaching without the NAC (E). […] Note the white tissue in the absence of NAC which represents dead and dying tissue.

In data set [12] the test system is gingival cells. Put plainly: Bleaching agent on rat palatal gingiva: gingival cell growth. To be noted: bleaching agent on palatal gingiva 5 hours, without or with NAC; cells grown 21 days. It counts as in vivo, rats. Here is the method: For gingival cells, the bleaching agent was applied in the same order of experimental groups to the palatal gingiva for 5 hours, washed and excised and minced and treated with collagenase (0.01%) for 48 hours before the single cell suspensions were prepared by washing and resuspending in DMEM. The cells were allowed to grow to confluency for 21 days before photographs were taken. […] FIG. 46 provides a graphical representation of cell survival.

[13] abbreviates: NAC 20 mM pretreatment about 8 hours or simultaneous, overnight.

Turning to `C=C(C)C(=O)OCCO` [HEMA, hydroxyethyl methacrylate], in data set [1], the “morphological changes (decreased size, blebbing, apoptotic bodies)” value is reported as “morphological changes indicative of apoptosis”. Also, the “increase in active caspase 3 staining compared to the CDDP treated cells” value in data set [2] was “about 2 fold”. In addition, the “active caspase 3 staining” value in [2] (CDDP) was 42%. The apoptotic cell death result in data set [3] is recorded as “undergo apoptotic cell death”. Also, the “VEGF levels by ELISA, Human dental pulp stromal cells” value in data set [4] (HEMA 0.00164M, alone or with NAC and/or vitamin E) was determined as 57.26; in data set [4] (HEMA 0.0082M, alone or with NAC and/or vitamin E), 72.6 pg/mL; in data set [4] (HEMA 0.0164M, alone or with NAC (20 mM) and/or vitamin E (5 mM)) it was 73.79. For the same compound, in data set [5], the “full length caspases 9 and 3 levels” value is “diminishes full length caspases 9 and 3 levels”. For the same compound, the GAPDH protein expression entry in data set [6] is on record as “significant decrease in GAPDH protein expression”. For the same compound, the “HEMA-mediated cell death and cytotoxicity (FITC-Annexin V/PI)” value in data set [7] (HEMA about 18 hours) and in data set [8] (HEMA about 18 hours) was “detected at millimole to micromole concentrations” throughout.

With `CC(=O)N[C@@H](CS)C(=O)O` [NAC, N-acetyl-cysteine], in data set [1], the “morphological changes (decreased size, blebbing, apoptotic bodies)” value was “inhibited the occurrence of these morphological changes”. Moreover, the “percentage of viable cells” value in [9] is recorded as “percentage of viable cells increases”. In [10], the “apoptotic cells (FITC-Annexin V/PI)” value is on record as “inhibits cell death induced by light cured composite disks”. Further, in data set [3], the apoptotic cell death result was “significantly blocked”. Besides, the “VEGF levels by ELISA, Human dental pulp stromal cells” value in data set [4] (no HEMA, NAC (20 mM) and/or vitamin E (5 mM)) amounted to 1532.4. For the same compound, in data set [11] (NAC 20 mM painted on teeth 5 minutes, then bleaching agent 5 hours), the “efficacy or potency of the bleaching system” value is listed as “does not decrease the efficacy or potency of the bleaching system”. The “white (dead and dying) tissue after bleaching” value in data set [11] (bleaching agent 5 hours, without or with NAC 20 mM) was “the amount of white tissue is minimal”. In [12], the gingival cell death entry is reported as “ameliorated”. Further, the “full length caspases 9 and 3 levels” value in [5] was “inhibits HEMA-mediated decrease in caspases 9 and 3”. The GAPDH protein expression result in data set [6] was “preventing the decrease in GAPDH protein expression”. In addition, the “inhibition of HEMA-mediated cell death (Sub Go/G1, PI staining)” value in data set [7] (setting [13]) and in data set [8] (setting [13]) was “inhibited HEMA-mediated cell death” throughout.

Values taken from patent US8481005B2, “Methods to prevent cytotoxicity using N-acetyl-cysteine” (priority 2006, dated 2013).
